Experimental findings from ChEMBL document CHEMBL1139105, “1,2,3-Thiadiazole substituted pyrazolones as potent KDR/VEGFR-2 kinase inhibitors” (Bioorg Med Chem Lett, 2007) are described below.

The target in data set [1] is Vascular endothelial growth factor receptor 2 (Homo sapiens, UniProt P35968). The data set is described as follows: Inhibition of human cytoplasmic VEGFR2 expressed in baculovirus after 15 mins by time resolved fluorescence assay.
Data set [2] is described as follows: Clearance in rat at 1 mg/kg, iv. Type of data set: ADME, organism-based. More on the design: dose 1 mg/kg, route intravenous. The following applies: in vivo.
Data set [3] can be described thus: Half life in rat at 1 mg/kg, iv. Further details: dose 1 mg/kg, route intravenous. The following applies: in vivo. The format is ADME, organism-based.
Data set [4] in a line: (§1) AUC in rat at 1 mg/kg, iv. Type of data set: ADME, organism-based, Plasma. More on the design: dose 1 mg/kg, route intravenous. As to conditions: plasma.
Data set [5] is described as follows: Volume of distribution in rat at 1 mg/kg, iv. Further details: dose 1 mg/kg, route intravenous. The format is ADME, organism-based. As to conditions: in vivo, read-out: Vdss.
Data set [6] in a line: Half life in rat at 5 mg/kg, po. Type of data set: ADME, organism-based. Further details: dose 5 mg/kg, route oral. As to conditions: in vivo.
Data set [7] is described as follows: (§2) Oral bioavailability in rat at 5 mg/kg. The format is ADME, organism-based. The following applies: in vivo.
A short description of data set [8]: Cmax in rat at 5 mg/kg, po. The format is ADME, organism-based. Further details: dose 5 mg/kg, route oral. The following applies: in vivo.
Data set [9] can be described thus: (§3) AUC in rat at 5 mg/kg, po. Type of data set: ADME, organism-based, Plasma. More on the design: dose 5 mg/kg, route oral. As to conditions: plasma.
In data set [10] the target is Vascular endothelial growth factor receptor 1 (Homo sapiens, UniProt P17948). Put plainly: Inhibition of VEGFR1.
Sequence of Vascular endothelial growth factor receptor 1 (P17948 whole entry): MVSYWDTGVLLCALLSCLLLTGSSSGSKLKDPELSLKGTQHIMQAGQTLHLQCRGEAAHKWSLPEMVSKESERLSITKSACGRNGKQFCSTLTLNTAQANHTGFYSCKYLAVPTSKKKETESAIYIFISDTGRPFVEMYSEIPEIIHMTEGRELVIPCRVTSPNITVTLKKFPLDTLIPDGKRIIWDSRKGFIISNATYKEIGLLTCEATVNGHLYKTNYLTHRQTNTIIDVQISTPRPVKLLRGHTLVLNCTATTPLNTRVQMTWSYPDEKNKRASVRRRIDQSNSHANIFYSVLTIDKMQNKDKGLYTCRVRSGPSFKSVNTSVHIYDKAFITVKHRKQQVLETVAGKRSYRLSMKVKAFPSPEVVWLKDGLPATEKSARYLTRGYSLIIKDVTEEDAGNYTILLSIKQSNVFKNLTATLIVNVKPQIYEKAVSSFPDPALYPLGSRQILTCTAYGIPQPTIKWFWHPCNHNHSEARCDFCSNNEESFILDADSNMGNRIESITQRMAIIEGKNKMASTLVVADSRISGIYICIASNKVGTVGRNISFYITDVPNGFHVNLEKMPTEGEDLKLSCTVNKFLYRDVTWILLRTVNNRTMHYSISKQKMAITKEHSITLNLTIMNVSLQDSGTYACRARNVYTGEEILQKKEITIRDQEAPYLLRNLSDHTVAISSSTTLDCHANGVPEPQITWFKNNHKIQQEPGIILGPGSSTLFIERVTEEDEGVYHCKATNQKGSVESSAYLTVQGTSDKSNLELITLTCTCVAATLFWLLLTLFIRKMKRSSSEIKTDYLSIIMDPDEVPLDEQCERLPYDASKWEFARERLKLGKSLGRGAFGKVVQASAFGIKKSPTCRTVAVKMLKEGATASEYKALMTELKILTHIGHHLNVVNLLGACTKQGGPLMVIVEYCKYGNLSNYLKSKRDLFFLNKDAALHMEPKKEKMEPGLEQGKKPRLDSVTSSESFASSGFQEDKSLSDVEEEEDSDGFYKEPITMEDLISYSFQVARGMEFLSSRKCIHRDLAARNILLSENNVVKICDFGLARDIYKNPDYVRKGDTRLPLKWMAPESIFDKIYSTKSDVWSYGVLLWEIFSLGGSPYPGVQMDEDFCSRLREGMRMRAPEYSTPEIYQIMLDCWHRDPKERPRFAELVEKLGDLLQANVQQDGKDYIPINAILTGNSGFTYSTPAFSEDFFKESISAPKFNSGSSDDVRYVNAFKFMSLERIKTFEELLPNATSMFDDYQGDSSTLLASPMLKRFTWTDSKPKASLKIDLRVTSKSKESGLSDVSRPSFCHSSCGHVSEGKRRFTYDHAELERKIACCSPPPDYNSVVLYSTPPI
Data set [11] has as its target Vascular endothelial growth factor receptor 3 (Homo sapiens, UniProt P35916). Put plainly: Inhibition of VEGFR3.
Another data set concerns the target Angiopoietin-1 receptor (Homo sapiens, UniProt Q02763). Put plainly: Inhibition of Tie2.
The target of data set [12] is Proto-oncogene tyrosine-protein kinase Src (Homo sapiens, UniProt P12931). Put plainly: Inhibition of SRC.
Data set [13] deals with High affinity nerve growth factor receptor (Homo sapiens, UniProt P04629). Put plainly: Inhibition of TRK A.
Sequence of High affinity nerve growth factor receptor (P04629 whole entry): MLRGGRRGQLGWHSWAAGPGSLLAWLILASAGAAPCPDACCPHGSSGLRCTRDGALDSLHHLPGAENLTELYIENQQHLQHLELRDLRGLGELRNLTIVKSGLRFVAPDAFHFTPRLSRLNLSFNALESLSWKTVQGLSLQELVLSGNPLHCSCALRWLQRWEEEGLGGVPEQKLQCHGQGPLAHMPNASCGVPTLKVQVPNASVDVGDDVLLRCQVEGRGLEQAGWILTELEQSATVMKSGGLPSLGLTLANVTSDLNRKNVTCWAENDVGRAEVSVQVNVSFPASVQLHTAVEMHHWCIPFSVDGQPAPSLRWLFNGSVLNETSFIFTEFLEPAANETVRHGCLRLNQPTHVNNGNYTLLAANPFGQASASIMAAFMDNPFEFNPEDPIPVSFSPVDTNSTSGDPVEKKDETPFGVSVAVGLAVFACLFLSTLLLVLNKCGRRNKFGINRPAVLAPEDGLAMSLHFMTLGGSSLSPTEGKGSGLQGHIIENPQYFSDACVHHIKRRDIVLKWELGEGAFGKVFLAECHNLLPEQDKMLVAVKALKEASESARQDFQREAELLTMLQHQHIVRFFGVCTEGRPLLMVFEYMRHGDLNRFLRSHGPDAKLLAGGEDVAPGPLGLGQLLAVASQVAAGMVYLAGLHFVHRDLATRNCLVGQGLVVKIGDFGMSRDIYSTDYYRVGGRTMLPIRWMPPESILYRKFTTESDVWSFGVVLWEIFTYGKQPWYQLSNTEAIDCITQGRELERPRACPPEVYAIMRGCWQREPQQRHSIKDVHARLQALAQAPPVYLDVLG
The subject of data set [14] is Rattus norvegicus. The data set is described as §2. The format is ADME, organism-based. The following applies: in vivo.
The test system of data set [15] is Rattus norvegicus. Described as §1. The format is ADME, organism-based, Plasma. Further details: dose 1 mg/kg, route intravenous. The following applies: in vivo.
Data set [16] deals with Rattus norvegicus. The description is as §3. The format is ADME, organism-based, Plasma. Further details: dose 5 mg/kg, route oral. The following applies: in vivo.

Sequence of Vascular endothelial growth factor receptor 2 (P35968 whole entry): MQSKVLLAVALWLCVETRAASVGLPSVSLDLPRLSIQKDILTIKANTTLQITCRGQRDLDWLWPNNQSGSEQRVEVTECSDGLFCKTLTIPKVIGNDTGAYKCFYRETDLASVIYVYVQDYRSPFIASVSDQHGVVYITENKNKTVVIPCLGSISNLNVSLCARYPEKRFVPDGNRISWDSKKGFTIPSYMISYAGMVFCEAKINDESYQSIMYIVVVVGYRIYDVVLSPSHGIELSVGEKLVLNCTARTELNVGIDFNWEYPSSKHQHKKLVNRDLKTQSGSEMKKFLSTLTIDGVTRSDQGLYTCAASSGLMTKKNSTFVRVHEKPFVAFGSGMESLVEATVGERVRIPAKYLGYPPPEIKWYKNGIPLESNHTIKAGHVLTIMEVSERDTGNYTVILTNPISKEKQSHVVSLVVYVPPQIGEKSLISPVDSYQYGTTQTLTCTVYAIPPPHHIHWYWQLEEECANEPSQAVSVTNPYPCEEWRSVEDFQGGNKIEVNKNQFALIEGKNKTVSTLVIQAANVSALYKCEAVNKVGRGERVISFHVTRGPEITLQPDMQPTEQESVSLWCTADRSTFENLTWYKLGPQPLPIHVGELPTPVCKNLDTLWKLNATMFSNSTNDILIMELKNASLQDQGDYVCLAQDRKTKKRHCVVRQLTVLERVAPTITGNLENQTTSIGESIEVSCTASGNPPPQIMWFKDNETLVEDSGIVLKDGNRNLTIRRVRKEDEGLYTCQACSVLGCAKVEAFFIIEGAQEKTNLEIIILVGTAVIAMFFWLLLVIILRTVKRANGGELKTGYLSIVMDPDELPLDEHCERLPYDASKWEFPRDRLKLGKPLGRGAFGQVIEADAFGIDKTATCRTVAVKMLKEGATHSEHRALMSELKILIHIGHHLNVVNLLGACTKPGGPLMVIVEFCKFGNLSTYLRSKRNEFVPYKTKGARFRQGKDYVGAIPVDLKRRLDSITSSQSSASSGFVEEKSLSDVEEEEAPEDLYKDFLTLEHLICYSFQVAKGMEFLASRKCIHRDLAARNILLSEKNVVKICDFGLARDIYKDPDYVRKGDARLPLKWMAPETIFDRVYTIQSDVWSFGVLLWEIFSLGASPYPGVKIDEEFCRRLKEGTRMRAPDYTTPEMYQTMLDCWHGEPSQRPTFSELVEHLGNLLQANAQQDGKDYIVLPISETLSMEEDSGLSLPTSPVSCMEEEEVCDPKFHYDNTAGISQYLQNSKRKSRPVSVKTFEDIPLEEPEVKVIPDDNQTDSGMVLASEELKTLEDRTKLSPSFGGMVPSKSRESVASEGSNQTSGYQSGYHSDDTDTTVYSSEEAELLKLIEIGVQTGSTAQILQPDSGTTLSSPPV
Sequence of Vascular endothelial growth factor receptor 3 (P35916 whole entry): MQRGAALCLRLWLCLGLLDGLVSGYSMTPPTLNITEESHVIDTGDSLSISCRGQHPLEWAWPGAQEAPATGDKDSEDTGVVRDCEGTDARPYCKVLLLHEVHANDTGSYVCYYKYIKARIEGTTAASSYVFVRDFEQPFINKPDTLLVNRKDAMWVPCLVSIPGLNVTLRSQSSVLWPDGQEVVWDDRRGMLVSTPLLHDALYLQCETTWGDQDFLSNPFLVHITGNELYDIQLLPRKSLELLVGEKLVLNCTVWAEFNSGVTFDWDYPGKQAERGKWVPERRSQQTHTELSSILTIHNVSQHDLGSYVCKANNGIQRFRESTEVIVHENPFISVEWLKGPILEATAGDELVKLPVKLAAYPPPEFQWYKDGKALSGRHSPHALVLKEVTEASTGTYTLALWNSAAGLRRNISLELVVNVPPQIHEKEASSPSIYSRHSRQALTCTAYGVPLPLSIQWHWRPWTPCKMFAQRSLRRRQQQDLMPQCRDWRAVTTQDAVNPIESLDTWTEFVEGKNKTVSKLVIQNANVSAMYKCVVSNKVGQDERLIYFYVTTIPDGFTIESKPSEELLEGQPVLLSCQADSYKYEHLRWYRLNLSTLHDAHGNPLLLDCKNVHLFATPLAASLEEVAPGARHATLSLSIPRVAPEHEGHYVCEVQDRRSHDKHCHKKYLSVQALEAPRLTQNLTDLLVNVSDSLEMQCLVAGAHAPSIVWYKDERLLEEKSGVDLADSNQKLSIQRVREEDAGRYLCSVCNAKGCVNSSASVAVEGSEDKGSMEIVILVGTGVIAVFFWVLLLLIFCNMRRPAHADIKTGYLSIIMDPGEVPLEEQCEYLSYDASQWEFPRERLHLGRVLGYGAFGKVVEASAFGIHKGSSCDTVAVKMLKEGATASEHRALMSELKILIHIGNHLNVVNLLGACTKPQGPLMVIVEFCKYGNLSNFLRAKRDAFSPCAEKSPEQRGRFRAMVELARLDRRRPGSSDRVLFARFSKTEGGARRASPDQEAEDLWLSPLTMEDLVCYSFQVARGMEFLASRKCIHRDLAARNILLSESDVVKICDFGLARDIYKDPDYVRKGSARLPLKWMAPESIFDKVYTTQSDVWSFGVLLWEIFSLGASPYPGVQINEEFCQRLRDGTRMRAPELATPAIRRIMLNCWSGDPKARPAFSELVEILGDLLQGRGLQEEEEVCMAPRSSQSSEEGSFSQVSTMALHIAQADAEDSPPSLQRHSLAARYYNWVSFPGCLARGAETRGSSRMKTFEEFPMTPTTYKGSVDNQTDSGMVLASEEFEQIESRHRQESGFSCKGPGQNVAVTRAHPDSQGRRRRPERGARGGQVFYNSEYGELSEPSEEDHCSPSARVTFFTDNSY

In turn, `Cc1nnsc1C1=NNC(=O)/C1=C\c1c[nH]c2ccccc12` yielded an IC50 in data set [1] of over 1000 nM.
Compound `COc1cccc2c1c(/C=C1\C(=O)NN=C1c1snnc1C)cn2C` came in with a clearance in data set [2] of 87 mL/min/kg. This compound also showed a half-life in data set [3] of 18 min. Besides, the AUC in data set [4] came out at 192 ng·h/mL. Further, the Vd in data set [5] amounted to 2.2 L/kg.
As for `Cc1nnsc1C1=NNC(=O)/C1=C\c1cn(C)c2ccc(C#N)cc12`, in data set [1], the IC50 was over 300 nM.
Take `Cn1cc(/C=C2\C(=O)NN=C2c2nccs2)c2c(F)cccc21`: the half-life was 72 min in data set [6] and 36 min in data set [3]. The clearance in data set [2] came out at 4.6 mL/min/kg. The same compound returned a bioavailability in data set [7] of 3%. This compound gave a Cmax in data set [8] of 139 ng/mL. In addition, the figures for the AUC in data set [4] and in [9] were 3600 ng·h/mL and 1040 ng·h/mL, respectively. In data set [5], the Vd was determined as 0.23 L/kg.
`CCOc1cccc2c1c(/C=C1\C(=O)NN=C1c1snnc1C)cn2C`: the IC50 in data set [10] is over 3 µM; in data set [11], 16 nM; against Angiopoietin-1 receptor, over 10 µM; in data set [12], 463 nM; in data set [13] it was 36 nM. Moreover, the clearance in data set [2] came out at 15 mL/min/kg. The compound also showed a half-life in data set [3] of 54 min. For the same compound, the AUC in data set [4] was 1140 ng·h/mL. Further, the Vd in [5] was 1.1 L/kg.
In the case of `Cc1nnsc1C1=NNC(=O)/C1=C\c1cn(C)c2ccc(F)cc12`, the values for the half-life in data set [6] and in [3] were 84 min and 30 min, respectively. The compound also registered a clearance in data set [2] of 25 mL/min/kg. The compound also showed a F in the data set on Rattus norvegicus [14] of 29%. Also, the Cmax in data set [8] was 356 ng/mL. For the same compound, the values for the AUC in the data set on Rattus norvegicus [15] and in the data set with Rattus norvegicus [16] were 727 ng·h/mL and 507 ng·h/mL, respectively. The Vd in data set [5] is 1.1 L/kg.
Take `Cc1nnsc1C1=NNC(=O)/C1=C\c1c[nH]c2ccc(Cl)cc12`: the IC50 in data set [1] is over 300 nM.
